From PMC10895678 (Journal of Medicinal Chemistry, 2024)
Converted amounts (≈) assume the structure as drawn.

Tests used:
MDR-M. tb 08/00483E = test: microbe, parasite or virus in culture; type: cell-based, Mycobacterium tuberculosis; conditions: for MIC99: Mycobacterium tuberculosis, read-out: MDR-M. tb 08/00483E MIC99
[1] = system: M. smegmatis and M. bovis BCG

Row | SMILES | MIC99 (MDR-M. tb 08/00483E) | fold lower MIC in MDR isolate 08/00483E in comparison to the drug-sensitive isolate (MDR-M. tb 08/00483E) | resistant colonies formed [1]
1 | Brc1cc(Br)cc(C2CC(CN3CCCC3)N2Cc2ccccc2Br)c1 (centres unmarked) [BGAz-004] | 15.6 µM (≈ 8.47 µg/mL) | – | –
2 | CNCC1CC(c2ccc(OC(F)(F)F)cc2)N1Cc1ccccc1OC(F)(F)F (centres unmarked) [BGAz-005] | 2.8 µM (≈ 1.22 µg/mL) | 8 fold | –
3 | FC(F)(F)Oc1ccc(C2CC(CN3CCCC3)N2Cc2ccccc2OC(F)(F)F)cc1 (centres unmarked) [BGAz-002] | 33.5 µM (≈ 15.9 µg/mL) | – | three resistant colonies
